# Laboratory results from patent publication US20190030018A1 (Celgene Corporation, priority 2017, published 2019).
# Tested on: 563 solid tumor cell lines
# Assay: Luminex assay in PRISM, 5 days treatment (AUC)
# Assay type: cell-based
# Set-up: AUC: scale not given here
# Experimental: The AUC values provided in Table 80 below were calculated based on the Median Fluorescent Intensity values, the primary read out of the Luminex assay in PRISM. The following parameters were used in this assay: • 8 point dose was used in triplicate • max concentration of 10 μM was used with serial 4-fold dilutions (low of […]) • 563 adherent cell lines in 23 pools. • treatment duration was 5 days.
compound,measurement,setting,value
"O=C1CCC(N2Cc3cc(CNC(=O)C(F)(F)c4ccc(Cl)cc4)ccc3C2=O)C(=O)N1 (centres unmarked) [Compound 1, 2-(4-chlorophenyl)-N-((2-(2,6-dioxopiperidin-3-yl)-1-oxoisoindolin-5-yl)methyl)-2,2-difluoroacetamide]",activity on solid tumor cell lines (AUC),"8 point dose, max 10 μM, 5 days","highest activity on lung, intestine, stomach, liver, pancreatic and kidney cell lines"
same,AUC,A101D_SKIN,0.821
same,AUC,A172_CENTRAL_NERVOUS_SYSTEM,0.314
same,AUC,A204_SOFT_TISSUE,0.156
same,AUC,A253_SALIVARY_GLAND,0.864
same,AUC,A375_SKIN,0.795
same,AUC,A498_KIDNEY,0.845
same,AUC,A549_LUNG,0.857
same,AUC,A673_BONE,0.885
same,AUC,A704_KIDNEY,0.823
same,AUC,A2058_SKIN,0.818
same,AUC,A2780_OVARY,0.485
same,AUC,ABC1_LUNG,0.591
same,AUC,ACCMESO1_PLEURA,0.631
same,AUC,ACHN_KIDNEY,0.912
same,AUC,AGS_STOMACH,0.865
same,AUC,AM38_CENTRAL_NERVOUS_SYSTEM,0.543
same,AUC,AN3CA_ENDOMETRIUM,0.861
same,AUC,BCPAP_THYROID,0.782
same,AUC,BECKER_CENTRAL_NERVOUS_SYSTEM,0.874
same,AUC,BEN_LUNG,0.826
same,AUC,BFTC909_KIDNEY,0.843
same,AUC,BHT101_THYROID,0.858
same,AUC,BHY_UPPER_AERODIGESTIVE_TRACT,0.405
same,AUC,BICR6_UPPER_AERODIGESTIVE_TRACT,0.801
same,AUC,BICR16_UPPER_AERODIGESTIVE_TRACT,0.585
same,AUC,BICR18_UPPER_AERODIGESTIVE_TRACT,0.845
same,AUC,BICR56_UPPER_AERODIGESTIVE_TRACT,0.984
same,AUC,BT474_BREAST,0.801
same,AUC,BT549_BREAST,0.242
same,AUC,BXPC3_PANCREAS,0.916
same,AUC,C32_SKIN,0.881
same,AUC,CADOES1_BONE,0.566
same,AUC,CAKI2_KIDNEY,0.867
same,AUC,CAL12T_LUNG,0.366
same,AUC,CAL27_UPPER_AERODIGESTIVE_TRACT,0.812
same,AUC,CAL29_URINARY_TRACT,0.831
same,AUC,CAL51_BREAST,0.589
same,AUC,CAL54_KIDNEY,0.679
same,AUC,CAL62_THYROID,0.083
same,AUC,CAL78_BONE,0.798
same,AUC,CAL120_BREAST,0.812
same,AUC,CALU6_LUNG,0.794
same,AUC,CAMA1_BREAST,0.589
same,AUC,CAPAN2_PANCREAS,0.835
same,AUC,CBAGPN_BONE,0.236
same,AUC,CCK81_LARGE_INTESTINE,0.021
same,AUC,CFPAC1_PANCREAS,0.872
same,AUC,CHL1_SKIN,0.330
same,AUC,CHLA10_BONE,0.933
same,AUC,CJM_SKIN,0.215
same,AUC,CL11_LARGE_INTESTINE,0.849
same,AUC,CL34_LARGE_INTESTINE,0.604
same,AUC,COLO678_LARGE_INTESTINE,0.811
same,AUC,COLO679_SKIN,0.830
same,AUC,COLO680N_OESOPHAGUS,0.863
same,AUC,COLO741_SKIN,0.411
same,AUC,COLO792_SKIN,0.629
same,AUC,COLO800_SKIN,0.810
same,AUC,COLO829_SKIN,0.748
same,AUC,CORL23_LUNG,0.879
same,AUC,CORL105_LUNG,0.824
same,AUC,COV318_OVARY,0.883
same,AUC,COV362_OVARY,0.824
same,AUC,COV644_OVARY,0.994
same,AUC,DANG_PANCREAS,0.793
same,AUC,DAOY_CENTRAL_NERVOUS_SYSTEM,0.928
same,AUC,DBTRG05MG_CENTRAL_NERVOUS_SYSTEM,0.795
same,AUC,DETROIT562_UPPER_AERODIGESTIVE_TRACT,0.855
same,AUC,DMS53_LUNG,0.903
same,AUC,DMS273_LUNG,0.771
same,AUC,DU145_PROSTATE,0.878
same,AUC,DV90_LUNG,0.174
same,AUC,EBC1_LUNG,0.960
same,AUC,ECGI10_OESOPHAGUS,0.877
same,AUC,EFE184_ENDOMETRIUM,0.679
same,AUC,EFM19_BREAST,0.917
same,AUC,EFM192A_BREAST,0.766
same,AUC,EFO21_OVARY,0.843
same,AUC,EFO27_OVARY,0.534
same,AUC,EKVX_LUNG,0.837
same,AUC,EN_ENDOMETRIUM,0.831
same,AUC,ES2_OVARY,0.801
same,AUC,ESS1_ENDOMETRIUM,0.512
same,AUC,EW8_BONE,0.985
same,AUC,EWS502_BONE,0.875
same,AUC,FADU_UPPER_AERODIGESTIVE_TRACT,0.859
same,AUC,FTC133_THYROID,0.833
same,AUC,FTC238_THYROID,0.8424
same,AUC,G292CLONEA141B1_BONE,0.2746
same,AUC,G402_SOFT_TISSUE,0.8297
same,AUC,GAMG_CENTRAL_NERVOUS_SYSTEM,0.365
same,AUC,GB1_CENTRAL_NERVOUS_SYSTEM,0.8359
same,AUC,GCIY_STOMACH,0.8662
same,AUC,GI1_CENTRAL_NERVOUS_SYSTEM,0.5874
same,AUC,GMS10_CENTRAL_NERVOUS_SYSTEM,0.4048
same,AUC,GOS3_CENTRAL_NERVOUS_SYSTEM,0.5047
same,AUC,GP2D_LARGE_INTESTINE,0.796
same,AUC,HARA_LUNG,0.7964
same,AUC,HCC15_LUNG,0.9583
same,AUC,HCC38_BREAST,0.4873
same,AUC,HCC44_LUNG,0.906
same,AUC,HCC56_LARGE_INTESTINE,0.849
same,AUC,HCC78_LUNG,0.793
same,AUC,HCC366_LUNG,0.3183
same,AUC,HCC827_LUNG,0.516
same,AUC,HCC1143_BREAST,0.8133
same,AUC,HCC1195_LUNG,0.9004
same,AUC,HCC1359_LUNG,0.875
same,AUC,HCC1395_BREAST,0.9508
same,AUC,HCC1419_BREAST,0.8487
same,AUC,HCC1428_BREAST,0.9167
same,AUC,HCC1438_LUNG,0.9701
same,AUC,HCC1806_BREAST,0.8775
same,AUC,HCC1937_BREAST,0.579
same,AUC,HCC1954_BREAST,0.8107
same,AUC,HCC4006_LUNG,0.8403
same,AUC,HCT15_LARGE_INTESTINE,0.554
same,AUC,HCT116_LARGE_INTESTINE,0.826
same,AUC,HDQP1_BREAST,0.825
same,AUC,HEC1A_ENDOMETRIUM,0.832
same,AUC,HEC6_ENDOMETRIUM,0.858
same,AUC,HEC59_ENDOMETRIUM,0.794
same,AUC,HEC108_ENDOMETRIUM,0.812
same,AUC,HEC151_ENDOMETRIUM,0.903
same,AUC,HEC251_ENDOMETRIUM,0.698
same,AUC,HEC265_ENDOMETRIUM,0.831
same,AUC,HEP3B217_LIVER,0.596
same,AUC,HEPG2_LIVER,0.511
same,AUC,HGC27_STOMACH,0.846
same,AUC,HLF_LIVER,0.952
same,AUC,HMC18_BREAST,0.847
same,AUC,HOS_BONE,0.854
same,AUC,HS294T_SKIN,0.883
same,AUC,HS729_SOFT_TISSUE,0.598
same,AUC,HS746T_STOMACH,0.428
same,AUC,HS766T_PANCREAS,0.830
same,AUC,HS852T_SKIN,0.710
same,AUC,HS939T_SKIN,0.836
same,AUC,HS944T_SKIN,0.719
same,AUC,HSC2_UPPER_AERODIGESTIVE_TRACT,0.597
same,AUC,HSC3_UPPER_AERODIGESTIVE_TRACT,0.834
same,AUC,HT29_LARGE_INTESTINE,0.546
same,AUC,HT55_LARGE_INTESTINE,0.571
same,AUC,HT144_SKIN,0.641
same,AUC,HT1376_URINARY_TRACT,0.900
same,AUC,HUCCT1_BILIARY_TRACT,0.533
same,AUC,HUH1_LIVER,0.508
same,AUC,HUH6_LIVER,0.867
same,AUC,HUH28_BILIARY_TRACT,0.267
same,AUC,HUPT3_PANCREAS,0.876
same,AUC,HUPT4_PANCREAS,0.5948
same,AUC,IALM_LUNG,0.2481
same,AUC,IGR37_SKIN,0.8495
same,AUC,IGROV1_OVARY,0.6978
same,AUC,IM95_STOMACH,0.111
same,AUC,IPC298_SKIN,0.894
same,AUC,ISHIKAWAHERAKLIO02ER_ENDOMETRIUM,0.8402
same,AUC,ISTMES1_PLEURA,0.1381
same,AUC,ISTMES2_PLEURA,0.8192
same,AUC,J82_URINARY_TRACT,0.8263
same,AUC,JHH1_LIVER,0.469
same,AUC,JHH4_LIVER,0.680
same,AUC,JHH5_LIVER,0.806
same,AUC,JHH6_LIVER,0.449
same,AUC,JHH7_LIVER,0.778
same,AUC,JHOC5_OVARY,0.865
same,AUC,JHOM1_OVARY,0.833
same,AUC,JHOS2_OVARY,0.566
same,AUC,JHUEM2_ENDOMETRIUM,0.761
same,AUC,JIMT1_BREAST,0.816
same,AUC,JL1_PLEURA,0.591
same,AUC,JMSU1_URINARY_TRACT,0.842
same,AUC,K029AX_SKIN,0.834
same,AUC,KALS1_CENTRAL_NERVOUS_SYSTEM,0.838
same,AUC,KE39_STOMACH,0.521
same,AUC,KELLY_AUTONOMIC_GANGLIA,0.591
same,AUC,KMBC2_URINARY_TRACT,0.913
same,AUC,KMRC1_KIDNEY,0.842
same,AUC,KMRC3_KIDNEY,0.990
same,AUC,KMRC20_KIDNEY,0.951
same,AUC,KNS42_CENTRAL_NERVOUS_SYSTEM,0.826
same,AUC,KNS60_CENTRAL_NERVOUS_SYSTEM,0.795
same,AUC,KNS62_LUNG,0.842
same,AUC,KNS81_CENTRAL_NERVOUS_SYSTEM,0.808
same,AUC,KP2_PANCREAS,0.767
same,AUC,KP3_PANCREAS,0.592
same,AUC,KP4_PANCREAS,0.447
same,AUC,KPL1_BREAST,0.890
same,AUC,KPNYN_AUTONOMIC_GANGLIA,0.648
same,AUC,KU1919_URINARY_TRACT,0.926
same,AUC,KURAMOCHI_OVARY,0.857
same,AUC,KYSE70_OESOPHAGUS,0.788
same,AUC,KYSE140_OESOPHAGUS,0.883
same,AUC,KYSE150_OESOPHAGUS,0.863
same,AUC,KYSE180_OESOPHAGUS,0.865
same,AUC,KYSE270_OESOPHAGUS,0.835
same,AUC,KYSE510_OESOPHAGUS,0.870
same,AUC,KYSE520_OESOPHAGUS,0.887
same,AUC,LC1SQSF_LUNG,0.936
same,AUC,LI7_LIVER,0.811
same,AUC,LK2_LUNG,0.768
same,AUC,LN229_CENTRAL_NERVOUS_SYSTEM,0.758
same,AUC,LNCAPCLONEFGC_PROSTATE,0.672
same,AUC,LOXIMVI_SKIN,0.905
same,AUC,LS180_LARGE_INTESTINE,0.142
same,AUC,LS411N_LARGE_INTESTINE,0.811
same,AUC,LS513_LARGE_INTESTINE,0.235
same,AUC,LS1034_LARGE_INTESTINE,0.223
same,AUC,LU99_LUNG,0.421
same,AUC,LXF289_LUNG,0.858
same,AUC,MALME3M_SKIN,0.180
same,AUC,MCAS_OVARY,0.845
same,AUC,MCF7_BREAST,0.831
same,AUC,MDAMB175VII_BREAST,0.524
same,AUC,MDAMB231_BREAST,0.278
same,AUC,MDAMB435S_SKIN,0.845
same,AUC,MELHO_SKIN,0.907
same,AUC,MELJUSO_SKIN,0.845
same,AUC,MEWO_SKIN,0.267
same,AUC,MFE280_ENDOMETRIUM,0.881
same,AUC,MFE296_ENDOMETRIUM,0.824
same,AUC,MFE319_ENDOMETRIUM,0.751
same,AUC,MG63_BONE,0.968
same,AUC,MHHES1_BONE,0.984
same,AUC,MIAPACA2_PANCREAS,0.866
same,AUC,MKN1_STOMACH,0.871
same,AUC,MKN7_STOMACH,0.841
same,AUC,MKN45_STOMACH,0.338
same,AUC,MKN74_STOMACH,0.883
